# Measurements reported in US9833433B1, “Compositions, methods of use, and methods of treatment” (priority 2013, dated 2017).
# Assays:
# [1] = tested on: synaptic release of glutamate; test: Miniature spontaneous EPSCs (mEPSCs) in cultured hippocampal neurons; type: cell-based; conditions: Δ^9-THC 3 μM; recorded 24 hrs after treatment
# EAAT1, EAAT2, and EAAT3 = test: Hippocampal expression of glutamate transporters (immunoblot); conditions: Δ^9-THC 10 mg/kg once a day for 7 days
# NF-κB = NF-κB phosphorylation in NG108-15 cells
# catalepsy = test: Bar test (catalepsy); type: in vivo, mice; conditions: Δ^9-THC 10 mg/kg; 30, 60, and 90 min after injection
# Method: (§1) The classic Morris water maze and fear conditioning tests were performed to determine spatial and fear memory as described previously (Chen et al., 2012). The ‘open field’ test was conducted to detect the locomotor activity and the bar test was used to detect catalepsy (Egashira et al., 2007).
# The cataleptic effect of Δ^9-THC was detected using the bar test as described previously with modification (Egashira et al., 2007; Pertwee and Wickens, 1991). Briefly, the front paws of each mouse were placed on an elevated rod (0.5 cm in diameter and 3.5 cm from the bottom of the test box) and the duration of time that the mouse kept motionless was determined. The test was conducted 30, 60, and 90 min after Δ^9-THC injection. Celebrex was injected 30 min prior to Δ^9-THC injection.
# [2] = tested on: Akt, ERK, p38MAPK and NF-κB; test: Phosphorylation of Akt, ERK, p38MAPK and NF-κB in hippocampal tissue; type: in vivo, mice; conditions: Δ^9-THC 10 mg/kg
# GluA1, GluN2A, GluN2B = test: Immunoblot and surface biotinylation of glutamate receptor subunits in hippocampus; type: in vivo; conditions: WT mice; Δ^9-THC for 7 days
# Method: (§2) Western blot assay was conducted using specific antibodies (Table S1) to determine expressions of COX-2, glutamate receptor subunits, PSD-95, G-protein subunits, phosphoproteins, BACE1 and neprilysin in hippocampal tissue and/or in cultured cells as described previously (Chen et al., 2012). Surface biotinylation assays were performed to determine surface expression of glutamate receptor subunits in hippocampal slices as described previously (Fan et al., 2010).
# Surface biotinylation assays were performed in hippocampal slices as described previously (Chen et al., 2006; Fan et al., 2010). Briefly, hippocampal slices were cut at thickness of 400 μm using a vibratome from mice that received vehicle or Δ^9-THC for 7 consecutive days, and then transferred to a six-well plate and incubated on ice for 1 h in carbogenated ACSF containing 500 μM Sulfo-NHS-SS-biotin (Thermo-Pierce, Rockford, Ill.). Collected tissue was then washed three times for 5 min with ice-cold ACSF containing 10 mM glycine, and was immediately homogenized in 800 μL ice-cold lysis buffer containing 20 mM Tris-HCl, pH 7.5, 1% Triton X-100, 50 mM NaCl, 1 mM EDTA, 0.1% sodium dodecyl sulfate, and a cocktail of protease inhibitors (Sigma, St. Louis, Mo.). After incubation on ice for 30 min, the homogenate was centrifuged at 18000 g at 4° C. for 10 min. Supernatants were collected. […]
# PSD-95 = test: Hippocampal PSD-95 expression (immunoblot); type: in vivo, mice; conditions: Δ^9-THC for 7 days
# Method: as §2
# locomotor activity = test: Open field test (locomotor activity); type: in vivo, mice; conditions: Δ^9-THC 10 mg/kg; 30 min open field
# Method: as §1
# The ‘open field’ test was conducted using an automatic-recording open-field working station (MED Associates, Georgia, Vt.). During the test, mice were individually released into the center of the box immediately after injections of Δ^9-THC, NS398, Δ^9-THC+NS398, Celebrex or Celebrex+Δ^9-THC. Celebrex and NS398 were injected 30 min prior to Δ^9-THC injection and allowed to explore the field for 30 min and their behaviors were recorded by a photobeam-scanning system and a video camera simultaneously. Data were analyzed automatically by the computer-sampling system.
# synaptophysin (Syn) = test: Hippocampal synaptophysin expression (immunoblot); type: in vivo, mice; conditions: Δ^9-THC for 7 days
# degenerated neurons = test: Degenerated neurons by Fluoro-Jade C staining in 5XFAD APP transgenic mice; type: in vivo; conditions: Δ^9-THC 3 mg/kg once daily for 4 weeks
# Method: Degenerated neurons were detected using Fluoro-Jade C (FJC), which is an anionic dye that specifically stains the soma and neurites of degenerating neurons and thus is unique as a neurodegenerative marker. Cryostat cut sections were incubated in the solution with FJC (0.0001% solution, EMD Millipore) and DAPI (0.5 μg/ml) for 10 min, followed by 3×1-min wash with distilled water. Slices were dried naturally at room temperature without light. The images were taken using a Zeiss deconvolution microscope with SlideBook 5.0 software as described previously (Chen et al., 2012).
# COX-2 mRNA = COX-2 mRNA by qPCR in NG108-15 cells; type: cell-based; conditions: culture transfected with the control vector; 6 hrs after Δ^9-THC
# hippocampal LTD = test: Hippocampal LTD induced by low-frequency stimulation at CA3-CA1 synapses; type: in vivo; conditions: single injection 10 mg/kg i.p.; LTD recorded 24 hrs later; WT mice P12 to P17
# Text: Field EPSP (fEPSP) recordings both at CA3-CA1 and perforant path synapses in response to stimuli at a frequency of 0.05 Hz were made using an Axoclamp-2B patch-clamp amplifier (Molecular Devices, CA) in bridge mode. Recording pipettes were pulled from borosilicate glass with a micropipette puller (Sutter Instrument), filled with artificial ACSF (2-4 MΩ). Hippocampal LTP at CA3-CA1 and perforant path synapses was induced by a theta-burst stimulation (TBS), consisting of a series of 10 bursts of 5 stimuli at 100 Hz (200 ms interburst interval, which was repeated three time (Fan et al., 2010; Hoffman et al., 2007; Chen et al., 2012). The input-output function was tested before recording of LTP, and the baseline stimulation strength was set to provide fEPSP with an amplitude of ˜30% from the subthreshold maximum derived from the input-output function. Hippocampal LTD was induced by low-frequency stimulation (900 stimuli at 1 Hz for 15 min) at CA3-CA1 synapses.
structure (smiles),measurement,setting,value
"CCCCCc1cc(O)c2c(c1)OC(C)(C)[C@@H]1CCC(C)=C[C@@H]21 [Δ^9-THC, Δ^9-tetrahydrocannabinol]",synaptic release of glutamate (mEPSCs),[1],enhanced synaptic release of glutamate
same,expression of glutamate transporters,"EAAT1, EAAT2, and EAAT3",down-regulated
same,NF-κB phosphorylation,NF-κB,induced NF-κB phosphorylation
same,cataleptic effect,catalepsy,cataleptic and locomotor depressive effects
same,"phosphorylation of Akt, ERK, p38MAPK and NF-κB in the hippocampus",[2],confirmed
same,"total and surface expressions of GluA1, GluN2A, GluN2B (immunoblot)","GluA1, GluN2A, GluN2B",significantly decreased
same,PSD-95 expression,PSD-95,reduced expression of PSD-95
same,locomotor depressive effect,locomotor activity,cataleptic and locomotor depressive effects
same,synaptophysin expression,synaptophysin (Syn),did not alter expression of synaptophysin (Syn)
same,numbers of degenerated neurons,degenerated neurons; absence of Celebrex,significantly reduced
same,numbers of degenerated neurons,degenerated neurons; presence of Celebrex 1 mg/kg,significantly reduced
same,COX-2 mRNA expression in NG108-15 cells,COX-2 mRNA,increased expression of COX-2 mRNA
same,hippocampal LTD after single exposure,hippocampal LTD,impaired
